Data: US10793526B2, “Hydantoin derivative compounds, methods of use and methods of treatment” (University of South Florida, priority 2016, dated 2020)

Columns and labels:
[1] = tested on: MRSA-induced lung inflammation; assay: Rat model of MRSA-induced pneumonia, pathological analysis (H&E); type: in vivo; details: 10 mg/kg i.v.
Method: The rat model of MRSA-induced pneumonia.^4, 5
The protocol of animal studies was approved by the institutional committee for animal care of Nanjing University, and the experiments were conducted following the regulation of the National Ministry of Health of China. In Brief, male Wistar rats (6-8 weeks, ˜200 g in average weight) were subjected to fast for 12 h. Next, rats were anesthetized by intraperitoneal administration of 0.35 g/kg of chloral hydrate. To induce MRSA pneumonia, the trachea of rats were exposed, to which 100 μL PBS containing 2×10^6 CFU/mL MRSA in PBS was slowly injected. The rats were retained upright for 1 min, and the cut was sealed. The MRSA infection was allowed to develop for 24 h.
The hydantoin compound 22 or vancomycin were used as antibiotics in the study. In brief, a dose of 10 mg/kg of the drug was injected to the tested rats intravenously. On the day of 3 and 5, rats were sacrificed, and lung sections were stained with hematoxylin and eosin (H&E), and their morphology was investigated under a light microscope at 100× magnification. The existence (indicated by the infiltration of neutrophils) and the extent of possible inflammatory response (indicated by the integrity of the alveolar structure and endothelium cilium) were recorded from at least five randomly picked sections by an experienced physician.

[2] = tested on: red blood cells (RBCs) of mice; assay: Hemolytic assay; type: cell-based; details: hemolytic activity; mouse RBCs, 1 h at 37° C.
Method: Fresh red blood cells (RBCs) of mice were washed with 1×PBS buffer and centrifuged 10 min at 3500 rpm for 3 times until the supernatant was clear, then RBCs were diluted into 5% v/v suspension in 1×PBS. 50 μL compounds in PBS were 2-fold serially diluted in a 96-well plate, and incubated with 50 μL RBCs suspension for 1 h at 37° C. The mixture was then centrifuged for 10 min at 3500 rpm. Subsequently, 30 μL of the supernatant was added to 100 μL PBS, then the absorbance of mixture was read on a Biotek Synergy HT plate reader at 540 nm. The hemolytic activity was calculated by the formula % hemolysis=(Abssample−AbsPBS)/(AbsTriton−AbsPBS)×100%. 1% Triton X-100 were used as the positive control and 1×PBS buffer was used as the negative control.

[3] = tested on: methicillin-resistant S. epidermidis (MRSE, RP62A); assay: Minimum inhibitory concentration (MIC) assay, MRSE; type: cell-based, Staphylococcus epidermidis; details: Staphylococcus epidermidis, MRSE, Gram positive, 16 h incubation, read-out: MIC (μg/mL) MRSE
[4] = tested on: methicillin-resistant S. aureus (MRSA, ATCC 33591); assay: Minimum inhibitory concentration (MIC) assay, MRSA; type: cell-based, Staphylococcus aureus

CCCCCCCCCCCC(=O)N[C@@H](CCCCN)CN1CC(=O)N(c2cccc(Cl)c2)C1=O [Compound 22, (S)—N-(6-amino-1-(3-(3-chlorophenyl)-2,4-dioxoimidazolidin-1-yl)hexan-2-yl)dodecanamide]
lung inflammation (H&E staining), day 3 ([1]; day 3): only mild inflammation
lung inflammation (H&E staining), day 5 ([1]; day 5): virtually the normal condition
HC50 [2]: 95 µg/mL
MIC [3]: 0.5 µg/mL
MIC ([4]; Staphylococcus aureus, Gram positive, ATCC 33591, 16 h incubation, read-out: MIC (μg/mL) MRSA): 0.5 µg/mL
effectiveness toward MRSA compared with nitrofurantoin ([4]; ratio of MICs): 25 fold
